In patent US11571458B2, “Bacteriocins to improve vaginal colonization of hydrogen peroxide producing lactobacillus for female reproductive health” (Osel, Inc., priority 2018, dated 2023):

Columns and labels:
[1] = tested on: Lactobacillus sakei subsp. sakei ATCC 15521; assay: critical dilution assay (bacteriocin activity / MIC); format: cell-based; conditions: ratio of peptides about 1:1 (w/w)
Lactobacillus iners = assay: as above; format: cell-based; conditions: for L. iners HM-702 MIC: ratio of peptides about 1:1 (w/w); for L. iners HM-702 MIC / MIC against L. iners: L. iners HM-702; for MIC against L. iners: molar value given in brackets; for anti-L. iners activity of purified chromatography fraction: reverse phase fractions identified by MALDI-TOF
L. iners HM-702 = assay: combined use of K7 bacteriocins and metronidazole, OD 600 nm; format: cell-based, Lactobacillus iners; conditions: 48 hours; K7 bacteriocin 80 BU/mL, metronidazole 42 μg/mL
Protocol: (§1) The effectiveness of the combined use of the K7 bacteriocins and metronidazole was tested against L. iners and G. vaginalis in vitro. Cultures of L. iners HM-702 and G. vaginalis HM-133, L. iners+G. vaginalis co-cultures, and L. crispatus SJ-3C were obtained as described previously in Example 1. Overnight cultures of L. iners, G. vaginalis, and L. crispatus were diluted in fresh growth media to concentrations of approximately 10^5 CFU/mL to be tested against K7 bacteriocin (from Example 1), metronidazole (Sigma-Aldrich, USA), and K7 bacteriocin+metronidazole (combined). To each culture of L. iners, G. vaginalis, the L. iners+G. vaginalis co-culture, and L. crispatus was added semi-purified K7 bacteriocin (80 BU/mL, quantified using L. iners as indicator), metronidazole (42 μg/mL), or the K7 bacteriocin+metronidazole combination, and incubated anaerobically at 37° C. for 48 hours. As controls, L. iners, G. vaginalis, the L. iners+G. vaginalis, and L. crispatus were incubated alone with conditioned media for 48 hours as well.

G. vaginalis HM-133 = assay: as above; format: cell-based, Gardnerella vaginalis; conditions: 48 hours; K7 bacteriocin 80 BU/mL, metronidazole 42 μg/mL
Protocol: as §1

L. crispatus SJ-3C = assay: as above; format: cell-based, Lactobacillus crispatus; conditions: 48 hours; K7 bacteriocin 80 BU/mL, metronidazole 42 μg/mL
Protocol: as §1

Molecule | L. sakei subsp. sakei ATCC 15521 MIC [1] | L. iners HM-702 MIC (Lactobacillus iners; critical dilution assay) | MIC against L. iners (Lactobacillus iners) | activity of peptide expressed as MBP fusion in E. coli (Lactobacillus iners; critical dilution assay, data not shown) | anti-L. iners activity of purified chromatography fraction (Lactobacillus iners) | sensitivity of L. iners (OD 600 nm) (L. iners HM-702) | sensitivity of G. vaginalis (OD 600 nm) (G. vaginalis HM-133) | inhibition of L. crispatus SJ-3C (OD 600 nm) (L. crispatus SJ-3C)
RNNWAANIGGAGGATVAGWALGNAVCGPACGFVGAHYVPIAWAGVTAATGGFGKIRK (listed as Lactobacillus paragasseri) [GasK7B α, α peptide of two-component bacteriocin gassericin K7B from L. paragasseri K7] | 0.0016 µg/mL | 0.025 µg/mL | 5 nM | comparable to the peptide isolated from K7 | greatest anti-L. iners activity | – | – | –
NKWGNAVIGAATGATRGVSWCRGFGPWGMTACGLGGAAIGGYLGYKSN (listed as Lactobacillus paragasseri) [GasK7B β, β peptide of two-component bacteriocin gassericin K7B from L. paragasseri K7] | 0.025 µg/mL | >0.1 µg/mL | – | – | minor peak of activity | – | – | –
NNVNWGSVAGSCGKGAVMEIYFGNPILGCANGAATSLVLQTASGIYKNYQKKR (listed as Lactobacillus paragasseri) [GasK7A β, β peptide of two-component bacteriocin gassericin K7A] | >4 µg/mL | >4 µg/mL | – | – | – | – | – | –
Cc1ncc([N+](=O)[O-])n1CCO [metronidazole] | – | – | – | – | – | not sensitive | sensitive | not significantly inhibited
KNWSVAKCGGTIGTNIAIGAWRGARAGSFFGQPVSVGTGALIGASAGAIGGSVQCVGWLAGGGR (protein, listed as Lactobacillus paragasseri, α peptide of two-component bacteriocin gassericin K7A from L. paragasseri K7) KNWSVAKCGGTIGTNIAIGAWRGARAGSFFGQPVSVGTGALIGASAGAIGGSVQCVGWLAGGGR | 0.0094 µg/mL | 0.075 µg/mL | 12 nM | – | – | – | – | –
